Data on 24 compounds can be found in patent US5153223A, “Biurets, aminocarbonyl carbamates, and aminocarbonyl thiocarbamates useful as ACAT inhibitors” (priority 1991, dated 1992).

Structures are written as SMILES.

Test system in the first assay: not listed separately
Nature of the assay: In vivo screen APCC: plasma total cholesterol in rats on high fat, high cholesterol diet with 0.5% cholic acid. The conditions noted are these: rat APCC, 30 mg/kg, high fat high cholesterol diet overnight. Details: species or system male Sprague-Dawley rats. From the text:
In one in vivo screen designated APCC, male Sprague-Dawley rats (200 to 225 g) were randomly divided into treatment groups and dosed at 4 PM with either vehicle (CMC/Tween) or suspensions of compounds in vehicle. The norma chow diet was then replaced with a high fat, high cholesterol diet with 0.5% cholic acid. The rats consumed this diet ad libitum during the night and were sacrificed at 8 AM to obtain blood samples for cholesterol analysis using standard procedures. Statistical differences between mean cholesterol values for the same vehicle were determined using analysis of variance followed by Fisher's least significant test. Compounds were dosed at 30 mg/kg unless otherwise noted.
In the case of `CC(C)c1cccc(C(C)C)c1OC(=O)NC(=O)NC(c1ccccc1)c1ccccc1` [Example 25, [[(diphenylmethyl)amino]carbonyl]carbamic acid, 2,6-bis(1-methylethyl)phenyl ester], the “% Change in Plasma TC Values (mg/dL)” value is “No change”.

Still in this assay, the particulars now being: rat APCC, 30 mg/kg, high fat high cholesterol diet overnight; read-out: % Change in Plasma TC Values (mg/dL).
Consider `CCCCCCCCCCC(C)OC(=O)NC(=O)Nc1c(C(C)C)cccc1C(C)C` (racemic) [Example 19, (±)[[[2,6-bis(1-methylethyl)phenyl]amino]carbonyl]carbamic acid, 1-methylundecyl ester], for which the change in vivo at 30 mg/kg is -26%.

For the compound `CCCCCCCC(C)OC(=O)NC(=O)Nc1c(C(C)C)cccc1C(C)C` (racemic) [Example 20, (±)[[[2,6-bis(1-methylethyl)phenyl]amino]carbonyl]carbamic acid, 1-methyloctyl ester], the change in vivo at 30 mg/kg was -24%.

`CCCCCC(C)OC(=O)NC(=O)Nc1c(C(C)C)cccc1C(C)C` (racemic) [Example 21, (±)[[[2,6-bis(1-methylethyl)phenyl]amino]carbonyl]carbamic acid, 1-methylhexyl ester]: the change in vivo at 30 mg/kg was -22%.

For the compound `CCCCCCCCC(C)OC(=O)NC(=O)Nc1c(C(C)C)cccc1C(C)C` (racemic) [Example 22, (±)[[[2,6-bis(1-methylethyl)phenyl]amino]carbonyl]carbamic acid, 1-methylnonyl ester], the change in vivo at 30 mg/kg is -22%.

For `CCCCCCCCCCCCCCC(C)OC(=O)NC(=O)Nc1c(C(C)C)cccc1C(C)C` (racemic) [Example 23, (±)[[[2,6-bis(1-methylethyl)phenyl]amino]carbonyl]carbamic acid, 1-methylpentadecyl ester], the change in vivo at 30 mg/kg is -26%.

With `CCCCCCCCCCCCC(C)OC(=O)NC(=O)Nc1c(C(C)C)cccc1C(C)C` (racemic) [Example 24, (±)[[[2,6-bis(1-methylethyl)phenyl]amino]carbonyl]carbamic acid, 1-methyltridecyl ester], the change in vivo at 30 mg/kg was -33%.

Turning to `CC(C)c1cccc(C(C)C)c1NC(=O)N(C)C(=O)N(c1ccccc1)c1ccccc1` [Example 1, N'-[2,6-bis(1-methylethyl)phenyl]-2-methyl-N,N-diphenyliminodicarbonic diamide], the change in vivo at 30 mg/kg was -9%.

With `CCCCCCCCCCCCCCN(C)C(=O)NC(=O)Nc1c(C(C)C)cccc1C(C)C` [Example 14, N'-[2,6-bis(1-methylethyl)phenyl]-N-methyl-N-tetradecylimidodicarbonic diamide], the change in vivo at 30 mg/kg is -8%.

As for `CC(C)c1cccc(C(C)C)c1NC(=O)NC(=O)Oc1c(C(C)C)cccc1C(C)C` [Example 15, [[[2,6-bis(1-methylethyl)phenyl]amino]carbonyl] carbamic acid,2,6-bis(1-methylethyl)phenyl ester], the change in vivo at 30 mg/kg is -9%.

For `CCCCCCCCCCCCC(C)(C)OC(=O)NC(=O)Nc1c(C(C)C)cccc1C(C)C` [Example 17, [[[2,6-bis(1-methylethyl)phenyl]amino]carbonyl]carbamic acid, 1,1-dimethyltridecyl ester], the change in vivo at 30 mg/kg is -14%.

As to `CCCCCCCCCCCCOC(=O)NC(=O)Nc1c(C(C)C)cccc1C(C)C` [Example 18, [[[2,6-bis(1-methylethyl)phenyl]amino]carbonyl]carbamic acid, dodecyl ester], the change in vivo at 30 mg/kg is -38%.

Still in this assay, the particulars now being: rat APCC, *Dosed at 50 mg/kg, high fat high cholesterol diet overnight; read-out: % Change in Plasma TC Values (mg/dL).
For the compound `CC(C)c1cccc(C(C)C)c1NC(=O)NC(=O)N(Cc1ccccc1)Cc1ccccc1` [Example 4, N'-[2,6-bis(1-methylethyl)phenyl]-N,N-bis(phenylmethyl)imidodicarbonic diamide], the change in vivo at 50 mg/kg is -13%.

`CC(C)c1cccc(C(C)C)c1NC(=O)NC(=O)N(c1ccccc1)c1ccccc1` [Example 5, N'-[2,6-bis(1-methylethyl)phenyl]-N,N-diphenylimidodicarbonic diamide]: the change in vivo at 50 mg/kg is -40%.

In the case of `CCCCCCCCN(CCCCCCCC)C(=O)NC(=O)Nc1c(C(C)C)cccc1C(C)C` [Example 6, N-[2,6-bis(1-methylethyl)phenyl]-N,N-dioctylimidodicarbonic diamide], the change in vivo at 50 mg/kg is -5%.

In the case of `CCCCN(CCCC)C(=O)NC(=O)Nc1c(C(C)C)cccc1C(C)C` [Example 7, N'-[2,6-bis(1-methylethyl)phenyl]-N,N-dibutylimidodicarbonic diamide], the change in vivo at 50 mg/kg was -23%.

Turning to `CC(C)c1cccc(C(C)C)c1NC(=O)NC(=O)N1c2ccccc2CCc2ccccc21` [Example 8, N-[[[2,6-bis(1-methylethyl)phenyl]amino]carbonyl]-10,11-dihydro-5H-dibenz[b,f]azepin-5-carboxamide], the change in vivo at 50 mg/kg was -18%.

Regarding `CC(C)c1cccc(C(C)C)c1NC(=O)NC(=O)N(Cc1ccccc1)C(C)C` [Example 11, N'-[2,6-bis(1-methylethyl)phenyl]-N-(1-methylethyl)-N-(phenylmethyl)imidodicarbonic diamide], the change in vivo at 50 mg/kg is -27%.

Consider `CC(C)c1cccc(C(C)C)c1NC(=O)NC(=O)N1c2ccccc2Sc2ccccc21` [Example 12, N-[[[2,6-bis(1-methylethyl)phenyl]amino]carbonyl]-10H-phenothiazine-10-carboxamide], for which the change in vivo at 50 mg/kg is -19%.

A further assay has as its target T1, acyl-CoA: cholesterol acyltransferase (ACAT) (Oryctolagus cuniculus, UniProt G1SFD9).
T1 construct: tissue preparation containing rabbit intestinal microsomes; from tissue; host or cells: rabbit intestinal microsomes
T1 sequence (G1SFD9 1-524): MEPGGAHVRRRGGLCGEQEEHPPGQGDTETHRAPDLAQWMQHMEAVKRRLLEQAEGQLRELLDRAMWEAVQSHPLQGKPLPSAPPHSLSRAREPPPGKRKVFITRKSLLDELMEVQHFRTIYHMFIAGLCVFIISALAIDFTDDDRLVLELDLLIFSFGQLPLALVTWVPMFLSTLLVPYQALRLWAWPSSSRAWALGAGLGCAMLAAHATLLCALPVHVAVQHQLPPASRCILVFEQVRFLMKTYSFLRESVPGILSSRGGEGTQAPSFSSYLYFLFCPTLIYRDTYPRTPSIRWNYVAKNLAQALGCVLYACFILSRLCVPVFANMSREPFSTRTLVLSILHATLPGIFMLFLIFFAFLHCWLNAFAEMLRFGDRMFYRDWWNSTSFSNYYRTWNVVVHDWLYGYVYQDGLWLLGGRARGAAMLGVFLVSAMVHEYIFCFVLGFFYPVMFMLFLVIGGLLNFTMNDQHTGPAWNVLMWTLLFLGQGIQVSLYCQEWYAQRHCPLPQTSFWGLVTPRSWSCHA
In words: In vitro ACAT inhibition (IAI): radiolabeled cholesterol oleate formed from radiolabeled oleic acid in rabbit intestinal microsomes. The class given is biochemical.
Conditions: not given
As for the experimental part:
The ability of representative compounds of the present invention to inhibit ACAT was measured using an in vitro test more fully described in F. J. Field and R. G. Salone, Biochemica et Biophysica 712:557-570 (1982). The test assesses the ability of a test compound to inhibit the acylation of cholesterol by oleic acid by measuring the amount of radiolabeled cholesterol oleate formed from radiolabeled oleic acid in a tissue preparation containing rabbit intestinal microsomes.
The data appear in Table 1 where they are expressed as IC50 values; i.e., the concentration of test compound required to inhibit the activity of the enzyme by 50%.
In general, IC50 refers to the concentration needed to halve the response being measured. `CC(C)c1cccc(C(C)C)c1OC(=O)NC(=O)NC(c1ccccc1)c1ccccc1` [Example 25, [[(diphenylmethyl)amino]carbonyl]carbamic acid, 2,6-bis(1-methylethyl)phenyl ester]: the half-inhibitory concentration (IC50) is more than 1000 nM.

Staying with this assay, now noted: rabbit intestinal microsomes, ACAT; read-out: IAI IC50.
As to `CC(C)c1cccc(C(C)C)c1NC(=O)N(C)C(=O)N(c1ccccc1)c1ccccc1` [Example 1, N'-[2,6-bis(1-methylethyl)phenyl]-2-methyl-N,N-diphenyliminodicarbonic diamide], the 50% inhibitory concentration (IC50) was 600 nM.

For the compound `CC(C)c1cccc(C(C)C)c1NC(=O)NC(=O)NC(c1ccccc1)c1ccccc1` [Example 2, N-[2,6-bis(1-methylethyl)phenyl)-N'-(diphenylmethyl) iminodicarbonic amide], the IC50 was more than 1000 nM.

In the case of `CC(C)c1cccc(C(C)C)c1NC(=O)NC(=O)Nc1c(C(C)C)cccc1C(C)C` [Example 3, N,N'-bis[2,6-bis(1-methylethyl)phenyl]imidodicarbonic diamide], the half-inhibitory concentration (IC50) was more than 5000 nM.

As to `CC(C)c1cccc(C(C)C)c1NC(=O)NC(=O)N1c2ccccc2CCc2ccccc21` [Example 8, N-[[[2,6-bis(1-methylethyl)phenyl]amino]carbonyl]-10,11-dihydro-5H-dibenz[b,f]azepin-5-carboxamide], the half-maximal inhibitory concentration (IC50) stood at 890 nM.

As for `CC(C)c1cccc(C(C)C)c1NC(=O)NC(=O)N1CCCC1` [Example 9, N-[[[2,6-bis(1-methylethyl)phenyl]amino]carbonyl]-1-pyrrolidinecarboxamide], the IC50 was more than 5000 nM.

Take `CCN(CC)C(=O)NC(=O)Nc1c(C(C)C)cccc1C(C)C` [Example 10, N'-[2,6-bis(1-methylethyl)phenyl]-N,N-diethylimidodicarbonic diamide]: the IC50 was more than 5000 nM.

On to `CC(C)c1cccc(C(C)C)c1NC(=O)NC(=O)N1CCC(c2ccccc2)CC1` [Example 13, N-[[[2,6-bis(1-methylethyl)phenyl]amino]carbonyl]-1-[(4-phenyl)piperidine]carboxamide], for which the half-inhibitory concentration (IC50) is 3500 nM.
